In publication doi:10.1101/2023.08.21.552681v1 (biorxiv, 2023):

Tests used:
[1] = target: T1, ctdWDR91 (Homo sapiens, UniProt A4D1P6); test: biochemical
T1 sequence (A4D1P6 392-747): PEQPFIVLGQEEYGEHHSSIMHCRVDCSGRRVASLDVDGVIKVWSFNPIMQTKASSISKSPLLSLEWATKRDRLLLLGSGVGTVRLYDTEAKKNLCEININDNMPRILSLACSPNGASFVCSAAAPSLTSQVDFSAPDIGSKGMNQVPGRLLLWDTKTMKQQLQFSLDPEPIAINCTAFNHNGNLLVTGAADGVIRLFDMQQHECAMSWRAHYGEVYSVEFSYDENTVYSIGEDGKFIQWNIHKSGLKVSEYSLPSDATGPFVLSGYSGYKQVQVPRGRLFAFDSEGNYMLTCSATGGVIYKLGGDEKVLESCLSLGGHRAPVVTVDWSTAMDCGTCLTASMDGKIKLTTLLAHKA

[2] = target: T1, ctdWDR91; settings: at saturation (0-200 uM series), 2 h pre-incubation; covalent

In the case of `NC(=O)C1CCCN(c2ccc(C(=O)NC(c3ccc(Cl)cc3)C3CC3)cc2)C1` (stereo not drawn) [DRGG001957a], the Kd [1] is reported as 16 µM.

`O=C(N[C@@H]1CCN(C2CC2)[C@H]1c1ccccc1)c1ccc(N2CCC(O)C2)cc1` (stereo partly drawn) [DRGG001958a] was tested, and the Kd [1] was > 45 µM.

For `O=C(NCC1CCN(c2ccc(Cl)cc2)C1)c1ccc(C2(O)COC2)cc1` (stereo not drawn) [DRGG001959a], the Kd [1] was > 45 µM.

`O=C(NCC1CCN(c2ccc(F)cc2)C1)c1ccc(Cl)cc1` (stereo not drawn) [DRGG001960a] was tested, and the Kd [1] was > 45 µM.

`O=C(NC(CCO)c1ccc(Cl)cc1)c1ccc(N2CCC(O)C2)cc1` (stereo not drawn) [DRGG001961a] was tested, and the Kd [1] was 14 µM.

`O=C(CNC(=O)c1ccc(F)cc1)NC1CCN(c2ccc(Cl)cc2)C1` (stereo not drawn) [DRGG001962a] was tested, and the Kd [1] was > 45 µM.

In the case of `O=C(NC1CCN(c2ccc(Cl)cc2)C1)c1ccc(N2CCC(O)C2)cc1` (stereo not drawn) [DRGG001963a], the Kd [1] is reported as > 45 µM.

In the case of `O=C(N[C@@H]1CC2(CCC2)Oc2ccc(F)cc21)c1ccc(N2CCC(O)C2)cc1` (stereo partly drawn) [DRGG001964a], the Kd [1] is reported as > 45 µM.

With `CC1CCN(c2ccc(C(=O)NCC3(c4ccc(F)cc4)CC3)cc2)C1` (stereo not drawn) [DRGG001965a] the Kd [1] was > 45 µM.

In the case of `O=C(NC1CCN(c2ccc(Cl)cc2)C1)c1ccc(C2(O)COC2)cc1` (stereo not drawn) [DRGG001966a], the Kd [1] is reported as > 45 µM.

With `O=C(NCC1CCN(Cc2ccccc2)C1)c1ccc(N2CCC(O)C2)cc1` (stereo not drawn) [DRGG001968a] the Kd [1] was > 45 µM.

`O=C(NC1(c2ccc(Cl)cc2)COC1)c1ccc(CC2CC2)cc1` [DRGG001970a] was tested, and the Kd [1] was > 45 µM.

`O=C(NC1(c2ccc(Cl)cc2)COC1)c1ccc(OCC2CC2)cc1` [DRGG001971a] was tested, and the Kd [1] was > 45 µM.

For `O=C(NC1CCN(c2ccc(Cl)cc2)C1)c1ccc2c(c1)CC2` (stereo not drawn) [DRGG001973a], the Kd [1] was > 45 µM.

For `O=C(NC1CC2(CCC2)Oc2ccccc21)c1ccc(N2CCC(O)C2)cc1` (stereo not drawn) [DRGG001975a], the Kd [1] was > 45 µM.

For `O=C(NC1CCN(c2ccc(F)cc2)C1)c1ccc(Cl)cc1` (stereo not drawn) [DRGG001976a], the Kd [1] was > 45 µM.

In the case of `O=C(Nc1cccc2cnccc12)c1ccc(N2CCC(O)C2)cc1` (stereo not drawn) [DRGG001979a], the Kd [1] is reported as > 45 µM.

With `O=C(NC1(c2ccc(Cl)cc2)CC1)c1ccc(N2CCC(O)C2)cc1` (stereo not drawn) [DRGG001980a] the Kd [1] was > 20 µM.

With `O=C(NC1CCc2cc(Cl)ccc21)c1ccc(N2CCC(O)C2)cc1` (stereo not drawn) [DRGG001981a] the Kd [1] was > 45 µM.

For `O=C(NC1(c2ccc(Cl)cc2)COC1)c1cccc(N2CCCC2)c1` [DRGG001982a], the Kd [1] was > 45 µM.

In the case of `O=C(NCC1CCN(c2ccc(Cl)cc2)C1)c1ccc(CN2CCOCC2)cc1` (stereo not drawn) [DRGG001983a], the Kd [1] is reported as > 45 µM.

In the case of `O=C1CCC(c2ccc(C(=O)NC3CCN(c4ccc(Cl)cc4)C3)cc2)N1` (stereo not drawn) [DRGG001984a], the Kd [1] is reported as > 45 µM.

In the case of `O=C(Nc1cccc2c1CN(C1CC1)C2)c1ccc(N2CCC(O)C2)cc1` (stereo not drawn) [DRGG001985a], the Kd [1] is reported as > 45 µM.

`O=C(N[C@@H]1C[C@H]1c1ccc(Cl)cc1)c1ccc(N2CCC(O)C2)cc1` (stereo partly drawn) [DRGG001986a] was tested, and the Kd [1] was > 45 µM.

With `O=C(NCC1CCN(c2ccc(Cl)cc2)C1)c1ccc(C2CCCOC2)cc1` (stereo not drawn) [DRGG001987a] the Kd [1] was > 45 µM.

`O=C(NC1(c2ccc(Cl)cc2)COC1)c1ccc(N2CCCC2)cc1` [DRGG001988a] was tested, and the Kd [1] was > 45 µM.

With `Cc1nc2sccn2c1C(=O)NC1(c2ccc(Cl)cc2)COC1` [DRGG001989a] the Kd [1] was > 45 µM.

With `C[C@@H](NC(=O)c1ccc(N2CCC(O)C2)cc1)c1ccc2c(c1)CCCC2` (stereo partly drawn) [DRGG001990a] the Kd [1] was > 45 µM.

With `O=C(NC1(c2ccc(Cl)cc2)COC1)C1CCN(c2ccccc2)C1` (stereo not drawn) [DRGG001991a] the Kd [1] was > 45 µM.

With `O=C(NC1CCN(c2ccc(Cl)cc2)C1)c1ccc(CN2CCCC2=O)cc1` (stereo not drawn) [DRGG001992a] the Kd [1] was > 45 µM.

With `N#CC1(c2ccc(C(=O)NCC3CCN(c4ccc(Cl)cc4)C3)cc2)CC1` (stereo not drawn) [DRGG001993a] the Kd [1] was > 45 µM.

With `CC1(c2ccc(C(=O)NC3CCN(c4ccc(F)cc4)C3)cc2)CC1` (stereo not drawn) [DRGG001994a] the Kd [1] was > 45 µM.

With `O=C(NCC1CCN(c2ccc(F)cc2)C1)C1(c2ccc(Cl)cc2)CCOCC1` (stereo not drawn) [DRGG001995a] the Kd [1] was > 45 µM.

`O=C(NCC1CCN(c2ccc(Cl)cc2)C1)c1cccc(C2(O)COC2)c1` (stereo not drawn) [DRGG001996a] was tested, and the Kd [1] was > 45 µM.

`NC(=O)C1CCCN(c2ccc(C(=O)NC(CCO)c3ccc(Cl)cc3)cc2)C1` (stereo not drawn) [DRGG001997a] was tested, and the Kd [1] was 22 µM.

With `CC(NC(=O)c1ccc(N2CCC(O)C2)cc1)c1cccc(N2CCCC2)c1` (stereo not drawn) [DRGG001998a] the Kd [1] was > 45 µM.

`O=C(N[C@@H]1CCO[C@H]1c1ccc(Cl)cc1)c1ccc(N2CCC(O)C2)cc1` (stereo partly drawn) [DRGG002001a] was tested, and the Kd [1] was > 45 µM.

For `O=C(NCC1CCN(c2ccc(F)cc2)C1)N1CC(O)(c2ccc(Cl)cc2)C1` (stereo not drawn) [DRGG002002a], the Kd [1] was > 45 µM.

In the case of `CC1(NC(=O)c2ccc(N3CCC(O)C3)cc2)CCN(C(=O)OC(C)(C)C)C1` (stereo not drawn) [DRGG002003a], the Kd [1] is reported as > 45 µM.

In the case of `O=C(NCC1CCN(c2ccc(Cl)cc2)C1)NC1(c2ccc(F)cc2)CC1` (stereo not drawn) [DRGG002005a], the Kd [1] is reported as > 45 µM.

With `O=C(CNC(=O)c1ccc(N2CCC(O)C2)cc1)OCc1ccc(Cl)cc1` (stereo not drawn) [DRGG002006a] the Kd [1] was > 45 µM.

With `O=C(NCC1CCN(c2ccc(Cl)cc2)C1)N1CC(O)(c2ccc(F)cc2)C1` (stereo not drawn) [DRGG002007a] the Kd [1] was > 45 µM.

In the case of `O=C(NCC1CCN(c2ccc(F)cc2)C1)NCC1(c2ccc(Cl)cc2)CC1` (stereo not drawn) [DRGG002008a], the Kd [1] is reported as > 45 µM.

For `CC1CCN(c2ccc(C(=O)NC3(Cc4cccc(F)c4)CC3)cc2)C1` (stereo not drawn) [DRGG002009a], the Kd [1] was > 45 µM.

For `O=C(NOCc1ccc(Cl)cc1)c1ccc(N2CCC(O)C2)cc1` (stereo not drawn) [DRGG002010a], the Kd [1] was > 45 µM.

With `O=C(NCc1ccc2nsnc2c1)c1ccc(N2CCC(O)C2)cc1` (stereo not drawn) [DRGG002011a] the Kd [1] was 12 µM.

In the case of `O=C(NC1CC1)c1ccc(C(=O)NC2CCN(c3ccc(Cl)cc3)C2)cc1` (stereo not drawn) [DRGG002012a], the Kd [1] is reported as > 45 µM.

With `O=C(NCCOc1ccc(Cl)cc1)c1ccc(N2CCC(O)C2)cc1` (stereo not drawn) [DRGG002013a] the Kd [1] was > 45 µM.

For `CC1CCN(c2ccc(C(=O)NC3(Cc4ccc(F)cc4)CC3)cc2)C1` (stereo not drawn) [DRGG002014a], the Kd [1] was > 45 µM.

In the case of `O=C(NCC1CCN(c2ccc(F)cc2)C1)NC1(c2ccc(Cl)cc2)CC1` (stereo not drawn) [DRGG002015a], the Kd [1] is reported as > 45 µM.

With `CC1CCN(c2ccc(C(=O)NC3(c4ccc(F)cc4)CC3)cc2)C1` (stereo not drawn) [DRGG002016a] the Kd [1] was > 45 µM.

With `NC(=O)c1ccc(C2(C(=O)NCC3CCN(c4ccc(Cl)cc4)C3)CC2)cc1` (stereo not drawn) [DRGG002017a] the Kd [1] was > 45 µM.

In the case of `O=C(NC1(c2ccc(Cl)cc2)COC1)c1ccc2c(c1)NC(=O)C1CCCN21` (stereo not drawn) [DRGG002018a], the Kd [1] is reported as > 45 µM.

Work on `C=CC(=O)N1CCCc2c(C(=O)NC(c3ccc(Cl)cc3)C3CC3)cccc21` (stereo not drawn) [DRTR002365a] yielded a DSF_delta_Tm_ [2] of 4 °C.

`C=CC(=O)N1CCCc2c(C(=O)NC(c3ccc(F)cc3)C3CCCCC3)cccc21` (stereo not drawn) [DRTR002366a] was tested, and the Kd [1] was > 45 µM.

`C=CC(=O)Nc1ccc(CC(=O)NC2(c3ccccc3)COC2)cc1` [MRTR046653a] was tested, and the Kd [1] was > 45 µM.

`C=CC(=O)N1CCCc2c(C(=O)NC3(c4ccc(Cl)cc4)COC3)cccc21` [MRTR046654a] showed a DSF_delta_Tm_ [2] of 4 °C.
